Measured values published in patent US10131652B2, “Pyrimidinyloxy benzene derivatives as herbicides” (E. I. DU PONT DE NEMOURS AND COMPANY, priority 2014, dated 2018).

How the values were obtained:
Format in all cases: in vivo
[1] = system: barnyardgrass (Echinochloa crus-galli); test: Test B pre-/postemergence plant response
Procedure, shortened: (§1)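 Visual injury rating, 0 (no effect) to 100 (complete control), vs untreated controls after ~10 d greenhouse. Pre: directed soil spray after planting in loam/sand. Post: plants 2–10 cm, 1–2 leaf stage. Compound in non-phytotoxic solvent plus surfactant.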

[2] = system: corn (Zea mays); test: Test B pre-/postemergence plant response
Procedure, shortened: as §1

[3] = system: giant foxtail (Setaria faberii); test: Test B pre-/postemergence plant response
Procedure, shortened: as §1

[4] = system: large (Lg) crabgrass (Digitaria sanguinalis); test: Test B pre-/postemergence plant response
Procedure, shortened: as §1

[5] = system: morningglory (Ipomoea spp.); test: Test B pre-/postemergence plant response
Procedure, shortened: as §1

[6] = system: pigweed (Amaranthus retroflexus); test: Test B pre-/postemergence plant response
Procedure, shortened: as §1

[7] = system: velvetleaf (Abutilon theophrasti); test: Test B pre-/postemergence plant response
Procedure, shortened: as §1

[8] = system: wheat (Triticum aestivum); test: Test B pre-/postemergence plant response
Procedure, shortened: as §1

[9] = system: barnyardgrass (Echinochloa crus-galli); test: Test C flooded paddy test plant response; conditions: Flood, 250 g ai/ha; scale of 0 to 100 where 0 is no effect and 100 is complete control; 13 to 15 days
Procedure, shortened: (§2)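 Plants grown to 2-leaf stage, flooded 3 cm above soil; compounds applied directly into paddy water, depth kept throughout. Visual rating versus controls after 13 to 15 days in greenhouse, 0 (no effect) to 100 (complete control).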

[10] = system: ducksalad (Heteranthera limosa); test: Test C flooded paddy test plant response; conditions: Flood, 250 g ai/ha; scale of 0 to 100 where 0 is no effect and 100 is complete control; 13 to 15 days
Procedure, shortened: as §2

[11] = system: rice (Oryza sativa); test: Test C flooded paddy test plant response; conditions: Flood, 250 g ai/ha; scale of 0 to 100 where 0 is no effect and 100 is complete control; 13 to 15 days
Procedure, shortened: as §2

[12] = system: small-flower umbrella sedge (Cyperus difformis); test: Test C flooded paddy test plant response; conditions: Flood, 250 g ai/ha; scale of 0 to 100 where 0 is no effect and 100 is complete control; 13 to 15 days
Procedure, shortened: as §2

[13] = 125 g ai/ha, postemergence, 0 to 100 scale, 0 no effect, 100 complete control
[14] = Postemergence, 500 g ai/ha, 0 to 100 scale (0 no effect, 100 complete control)
[15] = Preemergence, 125 g ai/ha, 0 to 100 scale where 0 is no effect and 100 is complete control
[16] = Preemergence, 500 g ai/ha, 0 to 100 scale (0 no effect, 100 complete control)
[17] = Postemergence, 1000 g ai/ha, 0 to 100 scale (0 no effect, 100 complete control)
[18] = Preemergence, 1000 g ai/ha, 0 to 100 scale (0 no effect, 100 complete control)

Clc1cnc(Oc2ccccc2-c2cccnc2)nc1 [Compound 4]
Plant response rating, Barnyardgrass [1, 13]: 0
Plant response rating, Barnyardgrass [1, 14]: 10
Plant response rating, Barnyardgrass [1, 15]: 0
Plant response rating, Barnyardgrass [1, 16]: 0
Plant response rating, Corn [2, 15]: 0
Plant response rating, Corn [2, 16]: 0
Plant response rating, Foxtail, Giant [3, 13]: 0
Plant response rating, Foxtail, Giant [3, 14]: 30
Plant response rating, Foxtail, Giant [3, 15]: 10
Plant response rating, Foxtail, Giant [3, 16]: 50
Plant response rating, Crabgrass, Large [4, 13]: 20
Plant response rating, Crabgrass, Large [4, 14]: 50
Plant response rating, Crabgrass, Large [4, 15]: 10
Plant response rating, Crabgrass, Large [4, 16]: 80
Plant response rating, Morningglory [5, 13]: 0
Plant response rating, Morningglory [5, 14]: 30
Plant response rating, Morningglory [5, 15]: 0
Plant response rating, Morningglory [5, 16]: 0
Plant response rating, Pigweed [6, 13]: 30
Plant response rating, Pigweed [6, 14]: 100
Plant response rating, Pigweed [6, 15]: 30
Plant response rating, Pigweed [6, 16]: 70
Plant response rating, Velvetleaf [7, 13]: 30
Plant response rating, Velvetleaf [7, 14]: 60
Plant response rating, Velvetleaf [7, 15]: 0
Plant response rating, Velvetleaf [7, 16]: 30
Plant response rating, Wheat [8, 13]: 0
Plant response rating, Wheat [8, 14]: 0
Plant response rating, Wheat [8, 15]: 0
Plant response rating, Wheat [8, 16]: 0
Barnyardgrass plant response rating [9]: 0
Ducksalad plant response rating [10]: 0
Rice plant response rating [11]: 0
Sedge, Umbrella plant response rating [12]: 0

Cn1ccc(-c2ccccc2Oc2ncc(Cl)cn2)n1 [Compound 10]
Plant response rating, Barnyardgrass [1, 13]: 0
Plant response rating, Barnyardgrass [1, 14]: 0
Plant response rating, Barnyardgrass [1, 17]: 10
Plant response rating, Barnyardgrass [1, 15]: 0
Plant response rating, Barnyardgrass [1, 16]: 0
Plant response rating, Barnyardgrass [1, 18]: 0
Plant response rating, Corn [2, 13]: 0
Plant response rating, Corn [2, 14]: 0
Plant response rating, Corn [2, 17]: 0
Plant response rating, Corn [2, 15]: 0
Plant response rating, Corn [2, 16]: 0
Plant response rating, Corn [2, 18]: 0
Plant response rating, Foxtail, Giant [3, 13]: 0
Plant response rating, Foxtail, Giant [3, 14]: 0
Plant response rating, Foxtail, Giant [3, 17]: 10
Plant response rating, Foxtail, Giant [3, 15]: 0
Plant response rating, Foxtail, Giant [3, 16]: 0
Plant response rating, Foxtail, Giant [3, 18]: 0
Plant response rating, Crabgrass, Large [4, 13]: 0
Plant response rating, Crabgrass, Large [4, 14]: 0
Plant response rating, Crabgrass, Large [4, 17]: 10
Plant response rating, Crabgrass, Large [4, 15]: 0
Plant response rating, Crabgrass, Large [4, 16]: 0
Plant response rating, Crabgrass, Large [4, 18]: 10
Plant response rating, Morningglory [5, 13]: 20
Plant response rating, Morningglory [5, 14]: 30
Plant response rating, Morningglory [5, 17]: 10
Plant response rating, Morningglory [5, 15]: 0
Plant response rating, Morningglory [5, 16]: 0
Plant response rating, Morningglory [5, 18]: 0
Plant response rating, Pigweed [6, 13]: 0
Plant response rating, Pigweed [6, 14]: 20
Plant response rating, Pigweed [6, 17]: 50
Plant response rating, Pigweed [6, 15]: 0
Plant response rating, Pigweed [6, 16]: 30
Plant response rating, Pigweed [6, 18]: 10
Plant response rating, Velvetleaf [7, 13]: 0
Plant response rating, Velvetleaf [7, 14]: 20
Plant response rating, Velvetleaf [7, 17]: 20
Plant response rating, Velvetleaf [7, 15]: 0
Plant response rating, Velvetleaf [7, 16]: 0
Plant response rating, Velvetleaf [7, 18]: 0
Plant response rating, Wheat [8, 13]: 0
Plant response rating, Wheat [8, 14]: 0
Plant response rating, Wheat [8, 17]: 0
Plant response rating, Wheat [8, 15]: 0
Plant response rating, Wheat [8, 16]: 0
Plant response rating, Wheat [8, 18]: 0
Barnyardgrass plant response rating [9]: 0
Ducksalad plant response rating [10]: 0
Rice plant response rating [11]: 0
Sedge, Umbrella plant response rating [12]: 0

Cn1cc(-c2ccccc2Oc2ncc(Cl)cn2)cn1 [Compound 11]
Plant response rating, Barnyardgrass [1, 13]: 0
Plant response rating, Barnyardgrass [1, 14]: 10
Plant response rating, Barnyardgrass [1, 15]: 0
Plant response rating, Barnyardgrass [1, 16]: 0
Plant response rating, Corn [2, 13]: 0
Plant response rating, Corn [2, 14]: 0
Plant response rating, Corn [2, 15]: 0
Plant response rating, Corn [2, 16]: 0
Plant response rating, Foxtail, Giant [3, 13]: 0
Plant response rating, Foxtail, Giant [3, 14]: 0
Plant response rating, Foxtail, Giant [3, 15]: 0
Plant response rating, Foxtail, Giant [3, 16]: 0
Plant response rating, Crabgrass, Large [4, 13]: 10
Plant response rating, Crabgrass, Large [4, 14]: 10
Plant response rating, Crabgrass, Large [4, 15]: 0
Plant response rating, Crabgrass, Large [4, 16]: 0
Plant response rating, Morningglory [5, 13]: 10
Plant response rating, Morningglory [5, 14]: 20
Plant response rating, Morningglory [5, 15]: 0
Plant response rating, Pigweed [6, 13]: 10
Plant response rating, Pigweed [6, 14]: 20
Plant response rating, Pigweed [6, 15]: 0
Plant response rating, Pigweed [6, 16]: 30
Plant response rating, Velvetleaf [7, 13]: 10
Plant response rating, Velvetleaf [7, 14]: 20
Plant response rating, Velvetleaf [7, 15]: 10
Plant response rating, Velvetleaf [7, 16]: 10
Plant response rating, Wheat [8, 13]: 0
Plant response rating, Wheat [8, 14]: 0
Plant response rating, Wheat [8, 15]: 0
Plant response rating, Wheat [8, 16]: 0
Barnyardgrass plant response rating [9]: 0
Ducksalad plant response rating [10]: 0
Rice plant response rating [11]: 0
Sedge, Umbrella plant response rating [12]: 0

Clc1cnc(Oc2ccccc2-c2cccc(Cl)n2)nc1 [Compound 16]
Plant response rating, Barnyardgrass [1, 13]: 0
Plant response rating, Barnyardgrass [1, 14]: 0
Plant response rating, Barnyardgrass [1, 15]: 0
Plant response rating, Barnyardgrass [1, 16]: 0
Plant response rating, Corn [2, 13]: 0
Plant response rating, Corn [2, 14]: 0
Plant response rating, Corn [2, 15]: 0
Plant response rating, Corn [2, 16]: 0
Plant response rating, Foxtail, Giant [3, 13]: 0
Plant response rating, Foxtail, Giant [3, 14]: 0
Plant response rating, Foxtail, Giant [3, 15]: 0
Plant response rating, Foxtail, Giant [3, 16]: 10
Plant response rating, Crabgrass, Large [4, 13]: 0
Plant response rating, Crabgrass, Large [4, 14]: 0
Plant response rating, Crabgrass, Large [4, 15]: 0
Plant response rating, Crabgrass, Large [4, 16]: 10
Plant response rating, Pigweed [6, 13]: 0
Plant response rating, Pigweed [6, 14]: 30
Plant response rating, Pigweed [6, 15]: 0
Plant response rating, Pigweed [6, 16]: 20
Plant response rating, Velvetleaf [7, 13]: 0
Plant response rating, Velvetleaf [7, 14]: 20
Plant response rating, Velvetleaf [7, 15]: 0
Plant response rating, Velvetleaf [7, 16]: 20
Plant response rating, Wheat [8, 13]: 0
Plant response rating, Wheat [8, 14]: 0
Plant response rating, Wheat [8, 15]: 0
Plant response rating, Wheat [8, 16]: 0
Barnyardgrass plant response rating [9]: 0
Ducksalad plant response rating [10]: 0
Rice plant response rating [11]: 0
Sedge, Umbrella plant response rating [12]: 0

Clc1cccc(-c2ccccc2Oc2ncc(Br)cn2)n1 [Compound 17]
Plant response rating, Barnyardgrass [1, 13]: 0
Plant response rating, Barnyardgrass [1, 14]: 0
Plant response rating, Barnyardgrass [1, 15]: 0
Plant response rating, Barnyardgrass [1, 16]: 0
Plant response rating, Corn [2, 13]: 0
Plant response rating, Corn [2, 14]: 0
Plant response rating, Corn [2, 15]: 0
Plant response rating, Corn [2, 16]: 0
Plant response rating, Foxtail, Giant [3, 13]: 0
Plant response rating, Foxtail, Giant [3, 14]: 0
Plant response rating, Foxtail, Giant [3, 15]: 0
Plant response rating, Foxtail, Giant [3, 16]: 0
Plant response rating, Crabgrass, Large [4, 13]: 0
Plant response rating, Crabgrass, Large [4, 14]: 0
Plant response rating, Crabgrass, Large [4, 15]: 0
Plant response rating, Crabgrass, Large [4, 16]: 10
Plant response rating, Pigweed [6, 13]: 0
Plant response rating, Pigweed [6, 14]: 10
Plant response rating, Pigweed [6, 15]: 0
Plant response rating, Pigweed [6, 16]: 0
Plant response rating, Velvetleaf [7, 13]: 0
Plant response rating, Velvetleaf [7, 14]: 20
Plant response rating, Velvetleaf [7, 15]: 0
Plant response rating, Velvetleaf [7, 16]: 10
Plant response rating, Wheat [8, 13]: 0
Plant response rating, Wheat [8, 14]: 0
Plant response rating, Wheat [8, 15]: 0
Plant response rating, Wheat [8, 16]: 0
Barnyardgrass plant response rating [9]: 0
Ducksalad plant response rating [10]: 0
Rice plant response rating [11]: 0
Sedge, Umbrella plant response rating [12]: 0
